“And” between values parts separate entries of the source, which are not always exact repeats. Identical values can stand only once. ± gives the uncertainty stated by the source.
Experiment: xn = mol fraction of the nth substance listed

CC(N)CN (configuration not stated) + OCCO
viscosity [mPa·s], 101.33 kPa
Settings	298.15 K	303.15 K	308.15 K	313.15 K	318.15 K
x2 = 0.0513	1.89 ± 0.06	1.66 ± 0.05	1.4 ± 0.05	1.33 ± 0.04	1.23 ± 0.04
x2 = 0.1024	2.46 ± 0.08	2.17 ± 0.07	1.8 ± 0.06	1.69 ± 0.05	1.53 ± 0.05
x2 = 0.1534	3.22 ± 0.1	2.9 ± 0.09	2.34 ± 0.08	2.19 ± 0.07	1.98 ± 0.06
x2 = 0.2043	4.66 ± 0.15	3.91 ± 0.13	3.1 ± 0.1	2.84 ± 0.09	2.51 ± 0.08
x2 = 0.255	6.47 ± 0.21	5.31 ± 0.18	4.14 ± 0.14	3.73 ± 0.12	3.23 ± 0.11
x2 = 0.3056	9.02 ± 0.3	7.28 ± 0.24	5.57 ± 0.19	4.91 ± 0.16	4.28 ± 0.14
x2 = 0.356	12.47 ± 0.42	9.89 ± 0.33	7.43 ± 0.25	6.42 ± 0.21	5.39 ± 0.18
x2 = 0.4064	17.12 ± 0.58	13.17 ± 0.45	9.78 ± 0.33	8.33 ± 0.28	6.89 ± 0.23
x2 = 0.4566	22.35 ± 0.75	17 ± 0.57	12.38 ± 0.41	10.39 ± 0.35	8.36 ± 0.28
x2 = 0.5066	27.55 ± 0.92	20.91 ± 0.69	15.09 ± 0.5	12.54 ± 0.41	10 ± 0.33
x2 = 0.5565	32.68 ± 1.1	24.47 ± 0.79	17.48 ± 0.57	14.47 ± 0.47	11.46 ± 0.37
x2 = 0.6063	36.17 ± 1.2	26.99 ± 0.87	19.26 ± 0.62	15.91 ± 0.51	12.62 ± 0.41
x2 = 0.6556	37.44 ± 1.2	28.04 ± 0.9	20.15 ± 0.64	16.67 ± 0.53	13.25 ± 0.42
x2 = 0.7055	36.53 ± 1.2	27.76 ± 0.89	20.09 ± 0.64	16.66 ± 0.53	13.32 ± 0.43
x2 = 0.7549	34.46 ± 1.1	26.24 ± 0.84	19.07 ± 0.61	15.99 ± 0.51	12.78 ± 0.41
x2 = 0.8042	32.78 ± 1.1	24.03 ± 0.77	17.71 ± 0.57	14.9 ± 0.48	11.97 ± 0.38
x2 = 0.8533	28.17 ± 0.9	21.54 ± 0.69	15.99 ± 0.51	13.67 ± 0.44	11.17 ± 0.36
x2 = 0.9024	24.94 ± 0.8	18.68 ± 0.6	14.07 ± 0.45	12.16 ± 0.39	10 ± 0.32
x2 = 0.9512	20.88 ± 0.67	16.21 ± 0.52	12.23 ± 0.39	10.67 ± 0.34	8.83 ± 0.28

Cc1cccc(C)n1 + O
Settings	viscosity
293.18 K, 101 kPa, x1 = 0.06338	2.838 ± 0.021 mPa·s
295.15 K, 101 kPa, x1 = 0.0183	1.357 ± 0.013 mPa·s
295.15 K, 101 kPa, x1 = 0.0403	1.932 ± 0.018 mPa·s
295.15 K, 101 kPa, x1 = 0.0675	2.915 ± 0.024 mPa·s
295.15 K, 101 kPa, x1 = 0.0833	3.276 ± 0.038 mPa·s
295.15 K, 101 kPa, x1 = 0.144	4.298 ± 0.038 mPa·s
295.15 K, 101 kPa, x1 = 0.282	5.153 ± 0.047 mPa·s
295.15 K, 101 kPa, x1 = 0.402	4.278 ± 0.051 mPa·s
295.15 K, 101 kPa, x1 = 0.602	2.687 ± 0.044 mPa·s
296.18 K, 101 kPa, x1 = 0.06338	2.578 ± 0.019 mPa·s
298.12 K, 101 kPa, x1 = 0.3006	4.353 ± 0.064 mPa·s
298.15 K, 101 kPa, x1 = 0.02034	1.346 ± 0.013 mPa·s
298.15 K, 101 kPa, x1 = 0.0297	1.553 ± 0.02 mPa·s
298.15 K, 101 kPa, x1 = 0.05039	2.066 ± 0.02 mPa·s
298.15 K, 101 kPa, x1 = 0.07682	2.713 ± 0.027 mPa·s
298.15 K, 101 kPa, x1 = 0.1166	3.638 ± 0.039 mPa·s
298.15 K, 101 kPa, x1 = 0.1208	3.916 ± 0.043 mPa·s
298.16 K, 101 kPa, x1 = 0.5008	2.844 ± 0.04 mPa·s
298.17 K, 101 kPa, x1 = 0.3981	3.708 ± 0.053 mPa·s
298.18 K, 101 kPa, x1 = 0.06338	2.428 ± 0.018 mPa·s
298.19 K, 101 kPa, x1 = 0.0602	2.361 ± 0.03 mPa·s
298.19 K, 101 kPa, x1 = 0.7887	1.038 ± 0.015 mPa·s
298.2 K, 101 kPa, x1 = 0.1001	3.14 ± 0.042 mPa·s
298.2 K, 101 kPa, x1 = 0.651	1.812 ± 0.026 mPa·s
298.21 K, 101 kPa, x1 = 0.0501	2.095 ± 0.027 mPa·s
298.23 K, 101 kPa, x1 = 0.2004	4.298 ± 0.063 mPa·s
299.18 K, 101 kPa, x1 = 0.06338	2.36 ± 0.017 mPa·s
300.12 K, 101.33 kPa, x1 = 0.0182	1.217 ± 0.01 mPa·s
300.18 K, 101 kPa, x1 = 0.06338	2.291 ± 0.017 mPa·s
301.18 K, 101 kPa, x1 = 0.06338	2.243 ± 0.017 mPa·s
302.02 K, 101 kPa, x1 = 0.0297	1.415 ± 0.016 mPa·s
302.18 K, 101 kPa, x1 = 0.06338	2.182 ± 0.016 mPa·s
303.02 K, 101 kPa, x1 = 0.2004	3.54 ± 0.059 mPa·s
303.05 K, 101 kPa, x1 = 0.0602	2.172 ± 0.027 mPa·s
303.08 K, 101 kPa, x1 = 0.1001	2.712 ± 0.038 mPa·s
303.12 K, 101.33 kPa, x1 = 0.0182	1.132 ± 0.009 mPa·s
303.17 K, 101 kPa, x1 = 0.0501	1.932 ± 0.023 mPa·s
303.17 K, 101 kPa, x1 = 0.3006	3.538 ± 0.057 mPa·s
303.18 K, 101 kPa, x1 = 0.06338	2.136 ± 0.016 mPa·s
303.19 K, 101 kPa, x1 = 0.3981	3.072 ± 0.043 mPa·s
303.19 K, 101 kPa, x1 = 0.5008	2.464 ± 0.034 mPa·s
303.23 K, 101 kPa, x1 = 0.7887	0.955 ± 0.014 mPa·s
303.26 K, 101 kPa, x1 = 0.651	1.593 ± 0.022 mPa·s
304.18 K, 101 kPa, x1 = 0.06338	2.093 ± 0.016 mPa·s
304.48 K, 101 kPa, x1 = 0.06338	2.084 ± 0.015 mPa·s
304.78 K, 101 kPa, x1 = 0.06338	2.076 ± 0.015 mPa·s
304.98 K, 101 kPa, x1 = 0.06338	2.071 ± 0.015 mPa·s
305.18 K, 101 kPa, x1 = 0.06338	2.066 ± 0.015 mPa·s
305.38 K, 101 kPa, x1 = 0.06338	2.063 ± 0.015 mPa·s
305.58 K, 101 kPa, x1 = 0.06338	2.064 ± 0.015 mPa·s
305.78 K, 101 kPa, x1 = 0.06338	2.065 ± 0.015 mPa·s
305.98 K, 101 kPa, x1 = 0.06338	2.065 ± 0.015 mPa·s
306.18 K, 101 kPa, x1 = 0.06338	2.058 ± 0.015 mPa·s
306.28 K, 101 kPa, x1 = 0.06338	2.074 ± 0.015 mPa·s
306.38 K, 101 kPa, x1 = 0.06338	2.083 ± 0.015 mPa·s
306.48 K, 101 kPa, x1 = 0.06338	2.088 ± 0.015 mPa·s
306.58 K, 101 kPa, x1 = 0.06338	2.101 ± 0.016 mPa·s
306.68 K, 101 kPa, x1 = 0.06338	2.124 ± 0.016 mPa·s
306.78 K, 101 kPa, x1 = 0.06338	2.141 ± 0.016 mPa·s
306.83 K, 101 kPa, x1 = 0.06338	2.151 ± 0.016 mPa·s
306.88 K, 101 kPa, x1 = 0.06338	2.183 ± 0.016 mPa·s
306.9 K, 101 kPa, x1 = 0.06338	2.198 ± 0.016 mPa·s
306.93 K, 101 kPa, x1 = 0.06338	2.22 ± 0.016 mPa·s
306.95 K, 101 kPa, x1 = 0.06338	2.242 ± 0.017 mPa·s
306.97 K, 101 kPa, x1 = 0.06338	2.27 ± 0.017 mPa·s
306.98 K, 101 kPa, x1 = 0.06338	2.291 ± 0.017 mPa·s
306.99 K, 101 kPa, x1 = 0.06338	2.316 ± 0.018 mPa·s
307 K, 101 kPa, x1 = 0.06338	2.344 ± 0.018 mPa·s and 2.36 ± 0.018 mPa·s
307.01 K, 101 kPa, x1 = 0.06338	2.384 ± 0.018 mPa·s and 2.396 ± 0.019 mPa·s and 2.405 ± 0.019 mPa·s
307.35 K, 101 kPa, x1 = 0.043	1.5 ± 0.02 mPa·s
307.35 K, 101 kPa, x1 = 0.0974	1.8 ± 0.03 mPa·s
307.65 K, 101 kPa, x1 = 0.0403	1.35 ± 0.02 mPa·s
307.65 K, 101 kPa, x1 = 0.105	1.95 ± 0.03 mPa·s
308.15 K, 101 kPa, x1 = 0.0349	1.2 ± 0.01 mPa·s
308.15 K, 101 kPa, x1 = 0.116	2.2 ± 0.03 mPa·s
308.18 K, 101 kPa, x1 = 0.5008	2.071 ± 0.029 mPa·s
308.21 K, 101 kPa, x1 = 0.3981	2.587 ± 0.036 mPa·s
308.23 K, 101 kPa, x1 = 0.7887	0.881 ± 0.013 mPa·s
308.26 K, 101 kPa, x1 = 0.651	1.413 ± 0.02 mPa·s
309.15 K, 101 kPa, x1 = 0.0288	1.1 ± 0.01 mPa·s
309.15 K, 101 kPa, x1 = 0.131	2.57 ± 0.03 mPa·s
311.15 K, 101 kPa, x1 = 0.0204	0.96 ± 0.01 mPa·s
311.15 K, 101 kPa, x1 = 0.155	2.47 ± 0.03 mPa·s
313.15 K, 101 kPa, x1 = 0.0185	0.88 ± 0.01 mPa·s
313.15 K, 101 kPa, x1 = 0.172	2.38 ± 0.03 mPa·s
313.25 K, 101 kPa, x1 = 0.5008	1.794 ± 0.024 mPa·s
313.31 K, 101 kPa, x1 = 0.3981	2.196 ± 0.03 mPa·s
313.32 K, 101 kPa, x1 = 0.651	1.262 ± 0.018 mPa·s
313.34 K, 101 kPa, x1 = 0.7887	0.815 ± 0.012 mPa·s
318.3 K, 101 kPa, x1 = 0.5008	1.571 ± 0.021 mPa·s
318.34 K, 101 kPa, x1 = 0.3981	1.902 ± 0.026 mPa·s
318.36 K, 101 kPa, x1 = 0.7887	0.758 ± 0.011 mPa·s
318.37 K, 101 kPa, x1 = 0.651	1.134 ± 0.016 mPa·s
319.15 K, 101 kPa, x1 = 0.017	0.73 ± 0.01 mPa·s
319.15 K, 101 kPa, x1 = 0.218	1.81 ± 0.02 mPa·s
323.15 K, 101 kPa, x1 = 0.013	0.63 ± 0.01 mPa·s
323.15 K, 101 kPa, x1 = 0.236	1.7 ± 0.02 mPa·s

— the CheMixHub viscosity set
